Source: US20210052616A1, “ANTHRACYCLINE ENCAPSULATED WITH A POLYSACCHARIDE FOR USE IN THE TREATMENT OF TUMOURS” (NANOVELOS S.A, priority 2018, published 2021)

Legend:
Format in all cases: cell-based
Conditions in all cases: 24 h
A2780 = test: MTT cytotoxicity test, A2780
From the text: (§1) In this test, […] present in the cells converts the soluble tetrazolium salt (3-4,5-dimethylthiazol-2-yl)-2,5-diphenyltetrazolium bromide) into a reduced form. The reaction yields water-insoluble purple crystalline formazan. The number of crystals formed depends on the enzyme activity so that it is directly proportional to the number of viable cells in the sample. Spectrophotometric measurement requires the use of an organic solvent to dissolve the crystals obtained (isopropanol). The change in colour intensity is measured by spectrophotometry at 570 nm wavelength. The test was performed for a number of dilutions (9) of nanoparticle solutions containing the tested anthracycline. The baseline concentration of nanoparticles for MTT tests was 2.5 mg of nanoparticles/ml. […] The study was also performed for drug-free nanoparticles (the carrier itself was obtained similarly to the nanoparticles with the drug). Cells not exposed to toxic substances were used as a control for toxicity studies.
(§2) After reaching 85-90% confluence, the cells were trypsinised using a 0.25% trypsin solution. The cells were then centrifuged (1200 rpm, 5 min.) and suspended in a culture medium suitable for a particular cell line. […] The cells were plated at a concentration of 1000 cells/100 μl of medium per culture well (96-well plates). The prepared plates were incubated (37° C./5% CO2/22 h to 26 h). Subsequently, the culture medium was replaced with a fresh one (100 μl) containing the appropriate concentration of the tested nanoparticles and set aside for 24 h (37° C./5% CO2). After the lapse of the test time, the medium was removed and replaced with 50 μl of an MTT reagent solution at a concentration of 1 mg/ml. The plate was incubated for 2 hours (37° C./5% CO2). Subsequently, the MTT solution was removed, and 100 μl of isopropanol was added. […] The mean value of absorbance read OD570 of the cells not exposed to a toxic agent (control) should be above 0.7 [see literature item 206].
(§3) A decrease in the number of viable cells causes a decrease in metabolic activity in the sample. This reduction directly correlates with the amount of blue and purple formazan formed, monitored basing on the optical density at 570 nm. The following equation (C.1) is used to calculate viability reduction compared to control:
(§4) where: • OD570e is the mean value of the measured absorbance of the test samples; • OD570b is the mean value of the measured absorbance of the control.
(§5) The results obtained were statistically analysed using the Dixon Q test.

OVCAR-3 = test: MTT cytotoxicity test, OVCAR-3
From the text: as §1, §2, §3, §4, §5

ACHN = test: MTT cytotoxicity test, ACHN
From the text: as §1, §2, §3, §4, §5

COLO 205 = test: MTT cytotoxicity test, COLO 205
From the text: as §1, §2, §3, §4, §5

PANC-1 = test: MTT cytotoxicity test, PANC-1
From the text: as §1, §2, §3, §4, §5

AU565 = test: MTT cytotoxicity test, AU565
From the text: as §1, §2, §3, §4, §5

MCF-7 = test: MTT cytotoxicity test, MCF-7
From the text: as §1, §2, §3, §4, §5

A549 = test: MTT cytotoxicity test, A549
From the text: as §1, §2, §3, §4, §5

SMILES: COc1cccc2c1C(=O)c1c(O)c3c(c(O)c1C2=O)C[C@@](O)(C(C)=O)C[C@@H]3O[C@H]1C[C@H](N)[C@H](O)[C@H](C)O1 [Dau, daunorubicin]
- Average viability (A2780; A2780, 1.25E+04 ng/ml NPs (pure drug equimolar)): 0.540%
- Average viability (A2780; A2780, 1.25E+05 ng/ml NPs (pure drug equimolar)): 18.312%
- Average viability (A2780; A2780, 1.25E+06 ng/ml NPs (pure drug equimolar)): 60.422%
- Average viability (A2780; A2780, 2.50E+04 ng/ml NPs (pure drug equimolar)): 3.689%
- Average viability (A2780; A2780, 2.50E+05 ng/ml NPs (pure drug equimolar)): 35.542%
- Average viability (A2780; A2780, 2.50E+06 ng/ml NPs (pure drug equimolar)): 54.259%
- Average viability (A2780; A2780, 5.00E+03 ng/ml NPs (pure drug equimolar)): 0.295%
- Average viability (A2780; A2780, 5.00E+04 ng/ml NPs (pure drug equimolar)): 11.600%
- Average viability (A2780; A2780, 5.00E+05 ng/ml NPs (pure drug equimolar)): 60.621%
- Average viability (OVCAR-3; OVCAR3, 1.25E+04 ng/ml NPs (pure drug equimolar)): 3.616%
- Average viability (OVCAR-3; OVCAR3, 1.25E+05 ng/ml NPs (pure drug equimolar)): 59.635%
- Average viability (OVCAR-3; OVCAR3, 1.25E+06 ng/ml NPs (pure drug equimolar)): 94.253%
- Average viability (OVCAR-3; OVCAR3, 2.50E+04 ng/ml NPs (pure drug equimolar)): 43.386%
- Average viability (OVCAR-3; OVCAR3, 2.50E+05 ng/ml NPs (pure drug equimolar)): 71.147%
- Average viability (OVCAR-3; OVCAR3, 2.50E+06 ng/ml NPs (pure drug equimolar)): 99.822%
- Average viability (OVCAR-3; OVCAR3, 5.00E+03 ng/ml NPs (pure drug equimolar)): 1.330%
- Average viability (OVCAR-3; OVCAR3, 5.00E+04 ng/ml NPs (pure drug equimolar)): 52.550%
- Average viability (OVCAR-3; OVCAR3, 5.00E+05 ng/ml NPs (pure drug equimolar)): 120.518%
- Average viability (ACHN; 1.25E+04 ng/ml NPs (pure drug equimolar)): 43.86%
- Average viability (ACHN; 1.25E+05 ng/ml NPs (pure drug equimolar)): 2.75%
- Average viability (ACHN; 1.25E+06 ng/ml NPs (pure drug equimolar)): 5.35%
- Average viability (ACHN; 2.50E+04 ng/ml NPs (pure drug equimolar)): 1.60%
- Average viability (ACHN; 2.50E+05 ng/ml NPs (pure drug equimolar)): 2.24%
- Average viability (ACHN; 5.00E+04 ng/ml NPs (pure drug equimolar)): 2.88%
- Average viability (ACHN; 5.00E+05 ng/ml NPs (pure drug equimolar)): 3.02%
- Average viability (COLO 205; Colo205, 1.25E+04 ng/ml NPs (pure drug equimolar)): 34.20%
- Average viability (COLO 205; Colo205, 1.25E+05 ng/ml NPs (pure drug equimolar)): 3.75%
- Average viability (COLO 205; Colo205, 1.25E+06 ng/ml NPs (pure drug equimolar)): 5.07%
- Average viability (COLO 205; Colo205, 2.50E+04 ng/ml NPs (pure drug equimolar)): 19.17%
- Average viability (COLO 205; Colo205, 2.50E+05 ng/ml NPs (pure drug equimolar)): 3.47%
- Average viability (COLO 205; Colo205, 2.50E+06 ng/ml NPs (pure drug equimolar)): 30.89%
- Average viability (COLO 205; Colo205, 5.00E+03 ng/ml NPs (pure drug equimolar)): 30.89%
- Average viability (COLO 205; Colo205, 5.00E+04 ng/ml NPs (pure drug equimolar)): 4.46%
- Average viability (COLO 205; Colo205, 5.00E+05 ng/ml NPs (pure drug equimolar)): 2.93%
- Average viability (PANC-1; PANC1, 1.25E+05 ng/ml NPs (pure drug equimolar)): 48.79%
- Average viability (PANC-1; PANC1, 1.25E+06 ng/ml NPs (pure drug equimolar)): 1.02%
- Average viability (PANC-1; PANC1, 2.50E+04 ng/ml NPs (pure drug equimolar)): 61.24%
- Average viability (PANC-1; PANC1, 2.50E+05 ng/ml NPs (pure drug equimolar)): 33.21%
- Average viability (PANC-1; PANC1, 2.50E+06 ng/ml NPs (pure drug equimolar)): 95.12%
- Average viability (PANC-1; PANC1, 5.00E+03 ng/ml NPs (pure drug equimolar)): 95.12%
- Average viability (PANC-1; PANC1, 5.00E+04 ng/ml NPs (pure drug equimolar)): 56.67%
- Average viability (PANC-1; PANC1, 5.00E+05 ng/ml NPs (pure drug equimolar)): 0.54%
- Average viability (AU565; AU565, 1.25E+04 ng/ml NPs (pure drug equimolar)): 58.57%
- Average viability (AU565; AU565, 1.25E+05 ng/ml NPs (pure drug equimolar)): 25.83%
- Average viability (AU565; AU565, 1.25E+06 ng/ml NPs (pure drug equimolar)): 1.544%
- Average viability (AU565; AU565, 2.50E+04 ng/ml NPs (pure drug equimolar)): 33.22%
- Average viability (AU565; AU565, 2.50E+05 ng/ml NPs (pure drug equimolar)): 12.14%
- Average viability (AU565; AU565, 2.50E+06 ng/ml NPs (pure drug equimolar)): 1.053%
- Average viability (AU565; AU565, 5.00E+03 ng/ml NPs (pure drug equimolar)): 75.96%
- Average viability (AU565; AU565, 5.00E+04 ng/ml NPs (pure drug equimolar)): 28.26%
- Average viability (AU565; AU565, 5.00E+05 ng/ml NPs (pure drug equimolar)): 3.245%
- Average viability (MCF-7; MCF-7, 1.25E+04 ng/ml NPs (pure drug equimolar)): 1.153%
- Average viability (MCF-7; MCF-7, 1.25E+05 ng/ml NPs (pure drug equimolar)): 17.162%
- Average viability (MCF-7; MCF-7, 1.25E+06 ng/ml NPs (pure drug equimolar)): 40.867%
- Average viability (MCF-7; MCF-7, 2.50E+04 ng/ml NPs (pure drug equimolar)): 1.072%
- Average viability (MCF-7; MCF-7, 2.50E+05 ng/ml NPs (pure drug equimolar)): 23.086%
- Average viability (MCF-7; MCF-7, 2.50E+06 ng/ml NPs (pure drug equimolar)): 69.450%
- Average viability (MCF-7; MCF-7, 5.00E+03 ng/ml NPs (pure drug equimolar)): 1.311%
- Average viability (MCF-7; MCF-7, 5.00E+04 ng/ml NPs (pure drug equimolar)): 4.421%
- Average viability (MCF-7; MCF-7, 5.00E+05 ng/ml NPs (pure drug equimolar)): 25.325%
- Average viability (A549; A549, 1.25E+04 ng/ml NPs (pure drug equimolar)): 57.00%
- Average viability (A549; A549, 1.25E+05 ng/ml NPs (pure drug equimolar)): 49.55%
- Average viability (A549; A549, 1.25E+06 ng/ml NPs (pure drug equimolar)): 0.53%
- Average viability (A549; A549, 2.50E+04 ng/ml NPs (pure drug equimolar)): 55.31%
- Average viability (A549; A549, 2.50E+05 ng/ml NPs (pure drug equimolar)): 52.82%
- Average viability (A549; A549, 2.50E+06 ng/ml NPs (pure drug equimolar)): 65.72%
- Average viability (A549; A549, 5.00E+03 ng/ml NPs (pure drug equimolar)): 65.72%
- Average viability (A549; A549, 5.00E+04 ng/ml NPs (pure drug equimolar)): 50.80%
- Average viability (A549; A549, 5.00E+05 ng/ml NPs (pure drug equimolar)): 0.60%
